Patent US20260103709A1, “C-MYC-TARGETING CHARGE-ALTERING RELEASABLE TRANSPORTERS AS ANTI-TUMOR AGENTS FOR BREAST CANCER THERAPY” (The Board of Trustees of the Leland Stanford Junior …, priority 2022, published 2026)

How the values were obtained:
[1] = tested on: human cell lines MDA-MB-436, MDA-MB-231, and BT20; assay: JQ1 cell viability IC50, human TNBC cell lines (CellTiter Glo); type: cell-based; settings: 24 hour treatment, range over human TNBC cell lines
Protocol: (§1) The specificity and dependence of CART siMYC's inhibitory effect on Myc or MYC levels in murine or human TNBC cells, respectively, was evaluated next. […] A number of different murine and human TNBC cell lines expressing high (murine cells: M158, M1011, and 4T1; and human cells: MDA-MB-231 and MDA-MB-436) or low MYC levels (human cell: BT20) were evaluated. […] The viability of M1011 and 4T1 cells was reduced by 25% upon treatment with CART siMYC but not with CARTs alone or with CART siLUC (FIG. 4B, FIG. 4C). In human TNBC cells, treatment with a human MYC-targeting siRNA (SEQ ID NO: 1) reduced viability by 35% or 22% in MDA-MB-231 or MDA-MB-436 cells, respectively (FIG. 4D, FIG. 4E). […] We conclude that CART siMYC is effective against TNBC cells expressing high, but not low, MYC levels and that the breadth of its therapeutic effects is dependent on cellular MYC levels.
(§2) […] 96-well plates were rocked for 5 minutes at room temperature, 100 μl from each well were transferred to a white opaque 96-well plate and luminescence was read using a SpectraMax Paradigm Multi-Mode Detection Platform plate reader (Molecular Devices).

BT20 cells = assay: Cell viability after CART with human MYC siRNA, BT20 (low MYC); type: cell-based; settings: JQ1 at the concentrations used for pre-treatment
Protocol: FIG. 4A to FIG. 4F: CART siMYC decreases cell viability in cells expressing high levels of Myc. […] Error bars represent SEM. Significance was taken at P<0.05 (*), P<0.01 (**), and P<0.005 (***). ns=not significant.
The specificity and dependence of CART siMYC's inhibitory effect on Myc or MYC levels in murine or human TNBC cells, respectively, was evaluated next. […] A number of different murine and human TNBC cell lines expressing high (murine cells: M158, M1011, and 4T1; and human cells: MDA-MB-231 and MDA-MB-436) or low MYC levels (human cell: BT20) were evaluated. […] The viability of M1011 and 4T1 cells was reduced by 25% upon treatment with CART siMYC but not with CARTs alone or with CART siLUC (FIG. 4B, FIG. 4C). In human TNBC cells, treatment with a human MYC-targeting siRNA (SEQ ID NO: 1) reduced viability by 35% or 22% in MDA-MB-231 or MDA-MB-436 cells, respectively (FIG. 4D, FIG. 4E). […]
Plates were incubated for 48 hours and upon treatment completion, a CellTiTer Glow assay was performed according to manufacturer's instructions (Promega). 96-well plates were rocked for 5 minutes at room temperature, 100 μl from each well were transferred to a white opaque 96-well plate and luminescence was read using a SpectraMax Paradigm Multi-Mode Detection Platform plate reader (Molecular Devices).

[2] = tested on: murine cell lines M1011, M158, and 4T1; assay: JQ1 cell viability IC50, murine TNBC cell lines (CellTiter Glo); type: cell-based, mouse; settings: 24 hour treatment, range over murine TNBC cell lines
Protocol: as §1, §2

Cc1sc2c(c1C)C(c1ccc(Cl)cc1)=N[C@@H](CC(=O)OC(C)(C)C)c1nnc(C)n1-2 [JQ1]
IC50 [1]: 7 to 32 µM | effect of JQ1 on BT20 cells (BT20 cells): not significantly affected | IC50 [2]: 0.3 to 0.72 µM
